In patent US20220289732A1, “HETEROCYCLIC WDR5 INHIBITORS AS ANTI-CANCER COMPOUNDS” (NOVARTIS AG, priority 2019, published 2022):

Assays:
[1] = target: WDR5 (Homo sapiens, UniProt P61964); assay: WDR5 HTRF binding assay; conditions: read-out: (a) WDR5 HTRF Pep Val v.1[Inhibitor/IC50]Qualified AC50
Outline: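 In this HTRF displacement format, biotinylated MLL1 WIN peptide (3762-3773, 20 nM) binds WDR5 (6 nM) in 25 mM Hepes pH 7.5 with 100 mM NaCl, 2 mM DTT and 0.1% BSA for 20 min at rt. Detection used streptavidin-APC/anti-His-Eu for 1 hr. IC50 came from dose-response fits of normalized signal; 15 nM biotin-PEG-His peptide served as counter assay.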

[2] = system: MV4-11 cells; assay: MV4-11 6-day cell growth CTG (CellTiter-Glo) assay; assay type: cell-based; conditions: Homo sapiens, MV4-11, 144 h, 6 days, read-out: (c) MLL/WDR5 cell proliferation assay//MLL/WDR5 proliferation MV4:11 Qualified AC50
Outline: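 IC50 comes from a dose-response fit of % inhibition relative to DMSO controls, with viable cells measured by CellTiter-Glo luminescence. Compounds were tested over 12 points (1:3, starting at 50 μM final) on MV4-11 cells plated at 300/well and grown 6 days.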

[3] = target: wild type MLL1 four-member complex (MLL1-4C) (Homo sapiens, UniProt P61964); assay: MLL1 LC-MS assay (SAH production); assay type: biochemical; conditions: read-out: (b) MLL LCMS Peptide Val.v.1 Qualified AC50
Outline: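 SAH formation, measured by LC-MS/MS after a TFA quench containing d4-SAH, was normalised to no-compound and no-enzyme controls and fitted to a dose-response curve for IC50. Reactions ran 120 min at rt (pH 8.0 Tris buffer) with final 30 nM MLL1 four-member complex, 2.5 μM SAM and 10 μM biotinylated H3[1-21] peptide, after a 20-min enzyme/SAM-compound preincubation.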

Row | Structure (SMILES) | IC50 [1] [µM] | AC50 [3] [µM] | AC50 [2] [µM]
1 | CNc1nccn1Cc1cc(-c2cc(CO)cnc2Cl)c2ccn(Cc3cccc(OC(F)F)c3)c(=O)c2c1 [Example 98, 5-(2-chloro-5-(hydroxymethyl)pyridin-3-yl)-2-(3-(difluoromethoxy)benzyl)-7-((2-(methylamino)-1H-imidazol-1-yl)methyl)isoquinolin-1(2H)-one] | < 0.01 | 0.01 to 1 | 0.01 to 1
2 | CNc1nccn1Cc1cc(Br)c2ccn(Cc3ccc(F)c(OC)c3)c(=O)c2c1 [Example 99, 5-bromo-2-(4-fluoro-3-methoxybenzyl)-7-((2-(methylamino)-1H-imidazol-1-yl)methyl)isoquinolin-1(2H)-one] | 0.01 to 1 | 0.01 to 1 | 0.01 to 1
3 | CNc1nccn1Cc1cc(-c2cc(CO)cnc2Cl)c2ccn(Cc3cccc(OC)c3)c(=O)c2c1 [Example 100, 5-(2-chloro-5-(hydroxymethyl)pyridin-3-yl)-2-(3-methoxybenzyl)-7-((2-(methylamino)-1H-imidazol-1-yl)methyl)isoquinolin-1(2H)-one] | 0.01 to 1 | 0.01 to 1 | 0.01 to 1
4 | CNc1nccn1Cc1cc(-c2cc(CO)cnc2Cl)c2ccn(Cc3ccc(F)c(OC)c3)c(=O)c2c1 [Example 101, 5-(2-chloro-5-(hydroxymethyl)pyridin-3-yl)-2-(4-fluoro-3-methoxybenzyl)-7-((2-(methylamino)-1H-imidazol-1-yl)methyl)isoquinolin-1(2H)-one] | 0.01 to 1 | 0.01 to 1 | 0.01 to 1

Further lines, with some results ahead:

Row | IC50 [1] [µM] | AC50 [3] [µM] | Structure (SMILES) | AC50 [2] [µM]
5 | 0.01 to 1 | 0.01 to 1 | CNc1nccn1Cc1cc(-c2cc(CO)cnc2Cl)c2ccn([C@@H](C)c3cccc(OC)c3)c(=O)c2c1 [Example 102, (S)-5-(2-chloro-5-(hydroxymethyl)pyridin-3-yl)-2-(1-(3-methoxyphenyl)ethyl)-7-((2-(methylamino)-1H-imidazol-1-yl)methyl)isoquinolin-1(2H)-one] | 0.01 to 1
6 | 0.01 to 1 | 0.01 to 1 | CNc1nccn1Cc1cc(-c2cc(CO)cnc2Cl)c2ccn([C@H](C)c3cccc(OC)c3)c(=O)c2c1 [Example 103, (R)-5-(2-chloro-5-(hydroxymethyl)pyridin-3-yl)-2-(1-(3-methoxyphenyl)ethyl)-7-((2-(methylamino)-1H-imidazol-1-yl)methyl)isoquinolin-1(2H)-one] | 0.01 to 1
7 | 0.01 to 1 | 0.01 to 1 | CNc1nccn1Cc1cc(-c2cc(CO)cnc2Cl)c2ccn(Cc3ccc(OC)c(F)c3)c(=O)c2c1 [Example 104, 5-(2-chloro-5-(hydroxymethyl)pyridin-3-yl)-2-(3-fluoro-4-methoxybenzyl)-7-((2-(methylamino)-1H-imidazol-1-yl)methyl)isoquinolin-1(2H)-one] | 0.01 to 1
8 | 0.01 to 1 | 0.01 to 1 | CNc1nccn1Cc1cc(-c2cc(CO)cnc2Cl)c2ccn(Cc3ccc(OC)cc3)c(=O)c2c1 [Example 105, 5-(2-chloro-5-(hydroxymethyl)pyridin-3-yl)-2-(4-methoxybenzyl)-7-((2-(methylamino)-1H-imidazol-1-yl)methyl)isoquinolin-1(2H)-one] | 0.01 to 1
9 | 0.01 to 1 | 0.01 to 1 | CNc1nccn1Cc1cc(-c2cc(C(C)O)cnc2Cl)c2ccn(Cc3ccc(F)c(OC)c3)c(=O)c2c1 (stereo not drawn) [Example 106, 5-(2-chloro-5-(1-hydroxyethyl)pyridin-3-yl)-2-(4-fluoro-3-methoxybenzyl)-7-((2-(methylamino)-1H-imidazol-1-yl)methyl)isoquinolin-1(2H)-one] | 0.01 to 1
10 | 0.01 to 1 | 0.01 to 1 | CNc1nccn1Cc1cc(-c2cc(CO)cnc2Cl)c2ccn(Cc3cc4c(C)cccc4[nH]3)c(=O)c2c1 [Example 107, 5-(2-chloro-5-(hydroxymethyl)pyridin-3-yl)-2-((4-methyl-1H-indol-2-yl)methyl)-7-((2-(methylamino)-1H-imidazol-1-yl)methyl)isoquinolin-1(2H)-one] | 0.01 to 1
